Patent US20040176431A1, “Antiproliferative 2-(sulfo-phenyl)-aminothiazole derivatives and pharmaceutical compositions, and methods for their use” (Pfizer, Inc., priority 2003, published 2004)

Legend:
[1] = test system: HCT-116 cells; test: Inhibition of cell growth (MTT tetrazolium salt assay); assay type: cell-based; conditions: Homo sapiens; for IC50: read-out: HCT116 IC50; for IC90: read-out: HCT116 IC90
Protocol: Inhibition of cell growth was measured using the tetrazolium salt assay, which is based on the ability of viable cells to reduce 3-(4,5-dimethylthiazol-2-yl)-2,5-[2H]-diphenyltetrazolium bromide (MTT) to formazan (Mosmann, J. Immunol. Meth., 65, 55-63 (1983)). The water-insoluble purple formazan product was then detected spectrophotometrically. HCT-116 cells were grown in 96-well plates. Cells were plated in the appropriate medium at a volume of 135 μl/well in either McCoy's 5A Medium. Plates were incubated for four hours before addition of inhibitor compounds. Different concentrations of inhibitor compounds were added in 0.5% (v/v) dimethylsulfoxide (15 μL/well), and cells were incubated at 37° C. (5% CO2) for four to six days (depending on cell type). At the end of the incubation, MTT was added to a final concentration of 0.2 mg/mL, and cells were incubated for 4 hours more at 37° C. After centrifugation of the plates and removal of medium, the absorbance of the formazan (solubilized in dimethylsulfoxide) was measured at 540 nm. […] All results were compared to control cells treated only with 0.5% (v/v) dimethylsulfoxide.

[2] = biological target: T1, CDK2/cyclin A (Homo sapiens, UniProt P24941); test: Inhibition of CDK2/Cyclin A retinoblastoma kinase activity; assay type: biochemical; conditions: apparent Ki, Rb fragment substrate
T1 construct: made in house; host or cells: CDK2: insect cells (baculovirus); cyclin A: E. coli, then limited proteolysis
Protocol: Cyclin-dependent kinase activity was measured by quantifying the enzyme-catalyzed, time-dependent incorporation of radioactive phosphate from [^32P]ATP or [^33P]ATP into a protein substrate. Unless noted otherwise, assays were performed in 96-well plates in a total volume of 50 μL, in the presence of 10 mM HEPES (N-[2-hydroxyethyl]piperazine-N′-[2-ethanesulfonic acid]) (pH 7.4), 10 mM MgCl2, 25 μM adenosine triphosphate (ATP), 1 mg/mL ovalbumin, 5 μg/mL leupeptin, 1 mM dithiothreitol, 10 mM β-glycerophosphate, 0.1 mM sodium vanadate, 1 mM sodium fluoride, 2.5 mM ethylene glycol-bis(β-aminoethyl ether)-N,N,N′N′-tetraacetic acid (EGTA), 2% (v/v) dimethylsulfoxide, and 0.03-0.4 μCi [^32/33P]ATP per reaction. Reactions were initiated with enzyme, incubated at 30° C., and terminated after 20 minutes by the addition of ethylenediaminetetraacetic acid (EDTA) to 250 mM. The phosphorylated substrate was then captured on a nitrocellulose or phosphocellulose membrane using a 96-well filtration manifold, and unincorporated radioactivity was removed by repeated washing with 0.85% phosphoric acid. Radioactivity was quantified by exposing the dried membranes to a phosphorimager.
Inhibition was measured relative to control wells that contained all reaction components including 2% (v/v) DMSO but no compound, after subtraction of background radioactivity measured in the absence of enzyme. Apparent Ki values of discrete compounds were measured by assaying enzyme activity in the presence of different inhibitor compound concentrations and subtracting the background radioactivity measured in the absence of enzyme. The kinetic parameters (kcat, Km for ATP) were measured for each enzyme under the usual assay conditions by determining the dependence of initial rates on ATP concentration. Inhibition data were fit to an equation for competitive inhibition using Kaleidagraph (Synergy Software), or were fit to an equation for competitive tight-binding inhibition using the software KineTic (BioKin, Ltd.).
CDK2 was purified using published methodology (Rosenblatt et al., J. Mol. Biol., 230, 1317-1319 (1993)) from insect cells that had been infected with a baculovirus expression vector. Cyclin A was purified from E. coli cells expressing full-length recombinant cyclin A, and a truncated cyclin A construct was generated by limited proteolysis and purified as described previously (Jeffrey et al., Nature, 376, 313-320 (1995)). A complex of CDK2 and proteolyzed cyclin A was prepared and purified by gel filtration. The substrate for this assay was the same Rb substrate fragment used for the CDK4 assays, and the methodology of the CDK2/delta cyclin A and the CDK4/delta cyclin D3 assays was essentially the same, except that CDK2 was present at 10 nM or 19 nM. The duration of the assay was 60 or 75 minutes, during which the time-dependence of product formation was linear and initial rate conditions were met.

[3] = biological target: T2, CDK4/cyclin D3 (Homo sapiens, UniProt P11802); test: Inhibition of CDK4/Cyclin D retinoblastoma kinase activity; assay type: biochemical; conditions: apparent Ki, Rb fragment substrate
T2 construct: made in house; host or cells: insect cells (baculovirus co-infection)
Procedure, shortened: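 Human CDK4 with truncated cyclin D3 (1-264) from baculovirus-infected insect cells, 5 nM, phosphorylating His-tagged Rb fragment (386-928) with 25 μM [32P/33P]ATP in pH 7.4 HEPES/MgCl2, 2% DMSO, 30° C., 20 min (60 min for tight binders). Filter capture, phosphorimager; apparent Ki from competitive or tight-binding competitive fits.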

T2 sequence (P11802 whole entry, the tested form may be a part): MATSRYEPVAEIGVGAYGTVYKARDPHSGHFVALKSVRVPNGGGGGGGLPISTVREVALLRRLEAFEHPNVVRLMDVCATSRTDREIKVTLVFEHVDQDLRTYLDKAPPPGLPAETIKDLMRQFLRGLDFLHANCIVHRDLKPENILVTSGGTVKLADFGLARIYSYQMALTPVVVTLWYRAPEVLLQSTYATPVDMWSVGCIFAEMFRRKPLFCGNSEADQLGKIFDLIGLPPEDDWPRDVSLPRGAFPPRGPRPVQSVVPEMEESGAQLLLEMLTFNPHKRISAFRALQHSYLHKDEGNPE
T2 sequence (P30281 1-264 partner limits assumed): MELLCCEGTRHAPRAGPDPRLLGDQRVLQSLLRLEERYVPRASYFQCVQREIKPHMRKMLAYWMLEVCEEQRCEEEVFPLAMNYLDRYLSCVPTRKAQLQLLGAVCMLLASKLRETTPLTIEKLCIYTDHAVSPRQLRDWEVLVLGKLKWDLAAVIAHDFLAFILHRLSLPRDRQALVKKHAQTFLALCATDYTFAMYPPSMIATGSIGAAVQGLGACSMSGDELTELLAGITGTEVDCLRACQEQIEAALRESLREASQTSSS

Structure (SMILES) | IC50 [1] [nM] | IC90 [1] [nM] | Ki [2] [nM] | Ki [3] [nM]
COCCNS(=O)(=O)c1ccc(Nc2nc(N)c(C(=O)c3c(F)cccc3F)s2)cc1 [Example A(3)] | 340 | 720 | 3.5 | 53
Nc1nc(Nc2ccc(S(=O)(=O)NCCO)cc2)sc1C(=O)c1c(F)cccc1F [Example A(4), 4-[4-Amino-5-(2,6-difluoro-benzoyl)-thiazol-2-ylamino]-N-(2-hydroxy-ethyl)-benzenesulfonamide] | 1000 | 2800 | 4.5 | 28
Nc1nc(Nc2ccc(S(=O)(=O)NCCCCO)cc2)sc1C(=O)c1c(F)cccc1F [Example A(5), 4-[4-Amino-5-(2,6-difluoro-benzoyl)-thiazol-2-ylamino]-N-(4-hydroxy-butyl)-benzenesulfonamide] | 1300 | 3000 | 5.7 | 24
Nc1nc(Nc2ccc(S(=O)(=O)NCCOCCO)cc2)sc1C(=O)c1c(F)cccc1F [Example A(6), 4-[4-Amino-5-(2,6-difluoro-benzoyl)-thiazol-2-ylamino]-N-[2-(2-hydroxy-ethoxy)-ethyl]-benzenesulfonamide] | 1900 | 4200 | 5.3 | 26
Nc1nc(Nc2ccc(S(=O)(=O)NCCCN3CCCC3)cc2)sc1C(=O)c1c(F)cccc1F [Example A(8), 4-[4-Amino-5-(2,6-difluoro-benzoyl)-thiazol-2-ylamino]-N-(3-pyrrolidin-1-yl-propyl)-benzenesulfonamide] | 2400 | 5000 | 11 | 9.9
CC(C)OCCCNS(=O)(=O)c1ccc(Nc2nc(N)c(C(=O)c3c(F)cccc3F)s2)cc1 [Example A(10), 4-[4-Amino-5-(2,6-difluoro-benzoyl)-thiazol-2-ylamino]-N-(3-isopropoxy-propyl)-benzenesulfonamide] | 900 | 2200 | 2.2 | 12
Nc1nc(Nc2ccc(S(=O)(=O)NCCCN3CCCCC3)cc2)sc1C(=O)c1c(F)cccc1F [Example A(14), 4-[4-Amino-5-(2,6-difluoro-benzoyl)-thiazol-2-ylamino]-N-(3-piperidin-1-yl-propyl)-benzenesulfonamide] | 420 | 1700 | 6 | 8.1
CC(C)OCCNS(=O)(=O)c1ccc(Nc2nc(N)c(C(=O)c3c(F)cccc3F)s2)cc1 [Example A(17), 4-[4-Amino-5-(2,6-difluoro-benzoyl)-thiazol-2-ylamino]-N-(2-isopropoxy-ethyl)-benzenesulfonamide] | 140 | 450 | 2 | 14

Other lines, results leading:

IC50 [1] [nM] | IC90 [1] [nM] | Ki [2] [nM] | Ki [3] [nM] | Structure (SMILES)
4000 | 9200 | 45 | 20 | Nc1nc(Nc2ccc(S(=O)(=O)NCC3CCCCN3)cc2)sc1C(=O)c1c(F)cccc1F (centres unmarked) [D(2), 4-[4-Amino-5-(2,6-difluoro-benzoyl)-thiazol-2-ylamino]-N-piperidin-2-ylmethyl-benzenesulfonamide]
2900 | > 5000 | 9.4 | 5.7 | CNCCNS(=O)(=O)c1ccc(Nc2nc(N)c(C(=O)c3c(F)cccc3F)s2)cc1 [D(3), 4-[4-Amino-5-(2,6-difluoro-benzoyl)-thiazol-2-ylamino]-N-(2-methylamino-ethyl)-benzenesulfonamide]
7000 | 17000 | 15 | 42 | Cc1csc(NS(=O)(=O)c2ccc(Nc3nc(N)c(C(=O)c4c(F)cccc4F)s3)cc2)n1 [E(1), 4-[4-Amino-5-(2,6-difluoro-benzoyl)-thiazol-2-ylamino]-N-(4-methyl-thiazol-2-yl)-benzenesulfonamide]
1000 | 2700 | 14 | 26 | Nc1nc(Nc2ccc(S(=O)(=O)N3CCNCC3)cc2)sc1C(=O)c1c(F)cccc1F [Example A(1), {4-Amino-2-[4-(piperazine-1-sulfonyl)-phenylamino]-thiazol-5-yl}-(2,6-difluoro-phenyl)-methanone]
360 | 1100 | 4.5 | 7.5 | CN(C)CCNS(=O)(=O)c1ccc(Nc2nc(N)c(C(=O)c3c(F)cccc3F)s2)cc1 [Example A(2), 4-[4-Amino-5-(2,6-difluoro-benzoyl)-thiazol-2-ylamino]-N-(2-dimethylamino-ethyl)-benzenesulfonamide]
140 | 400 | < 5 | < 5 | Nc1nc(Nc2ccc(S(=O)(=O)NCCNc3ccccc3)cc2)sc1C(=O)c1c(F)cccc1F [Example A(9), 4-[4-Amino-5-(2,6-difluoro-benzoyl)-thiazol-2-ylamino]-N-(2-phenylamino-ethyl)-benzenesulfonamide]
150 | 630 | < 5 | 4.2 | CC(CCCC(C)(C)O)NS(=O)(=O)c1ccc(Nc2nc(N)c(C(=O)c3c(F)cccc3F)s2)cc1 (centres unmarked) [Example A(12), 4-[4-Amino-5-(2,6-difluoro-benzoyl)-thiazol-2-ylamino]-N-(5-hydroxy-1,5-dimethyl-hexyl)-benzenesulfonamide]
730 | 3000 | 10 | 8.9 | CCN(CC)CCCNS(=O)(=O)c1ccc(Nc2nc(N)c(C(=O)c3c(F)cccc3F)s2)cc1 [Example A(13), 4-[4-Amino-5-(2,6-difluoro-benzoyl)-thiazol-2-ylamino]-N-(3-diethylamino-propyl)-benzenesulfonamide]
460 | 1800 | 8.2 | 8.4 | CC1CCCCN1CCCNS(=O)(=O)c1ccc(Nc2nc(N)c(C(=O)c3c(F)cccc3F)s2)cc1 (centres unmarked) [Example A(15), 4-[4-Amino-5-(2,6-difluoro-benzoyl)-thiazol-2-ylamino]-N-[3-(2RS-methyl-piperidin-1-yl)-propyl]-benzenesulfonamide]
1500 | 3900 | 18 | 57 | Nc1nc(Nc2ccc(S(=O)(=O)N3CCC(CCO)CC3)cc2)sc1C(=O)c1c(F)cccc1F [Example A(16), (4-Amino-2-{4-[4-(2-hydroxy-ethyl)-piperidine-1-sulfonyl]-phenylamino}thiazol-5-yl)-(2,6-difluoro-phenyl)-methanone]
1800 | 3700 | 5.8 | 24 | Cc1ccc(CCNS(=O)(=O)c2ccc(Nc3nc(N)c(C(=O)c4c(F)cccc4F)s3)cc2)cc1 [Example A(18), 4-[4-Amino-5-(2,6-difluoro-benzoyl)-thiazol-2-ylamino]-N-(2-p-tolyl-ethyl)-benzenesulfonamide]
400 | 1300 | 1.8 | 24 | CCSCCNS(=O)(=O)c1ccc(Nc2nc(N)c(C(=O)c3c(F)cccc3F)s2)cc1 [Example A(19), 4-[4-Amino-5-(2,6-difluoro-benzoyl)-thiazol-2-ylamino]-N-(2-ethylsulfanyl-ethyl)-benzenesulfonamide]
